Test results published in patent US20080194616A1, “PYRIDOPYRIMIDINONE COMPOUNDS USEFUL IN TREATING SODIUM CHANNEL-MEDIATED DISEASES OR CONDITIONS” (Xenon Pharmaceuticals Inc., priority 2007, published 2008).

How the values were obtained:
sodium channel = assay: Guanidine Influx Assay (In Vitro Assay); assay type: cell-based, human or rat; conditions: known cell line that expresses a sodium channel; read-out: IC50 Activity Level
Excerpt: This example describes an in vitro assay for testing and profiling test agents against human or rat sodium channels stably expressed in cells of either an endogenous or recombinant origin. The assay is also useful for determining the IC-50 of a sodium channel blocking compound. The assay is based on the guanidine flux assay described by Reddy, N. L., et al., J. Med. Chem. (1998), 41(17):3298-302.
The guanidine influx assay is a radiotracer flux assay used to determine ion flux activity of sodium channels in a high-throughput microplate-based format. The assay uses ^14C-guanidine hydrochloride in combination with various known sodium channel modulators, to assay the potency of test agents. Potency is determined by an IC-50 calculation. Selectivity is determined by comparing potency of the compound for the channel of interest to its potency against other sodium channels (also called ‘selectivity profiling’).
Each of the test agents is assayed against cells that express the channels of interest. Voltage gated sodium channels are either TTX sensitive or insensitive. This property is useful when evaluating the activities of a channel of interest when it resides in a mixed population with other sodium channels. The following Table 1 summarizes cell lines useful in screening for a certain channel activity in the presence or absence of TTX.
Cells expressing the channel of interest are grown according to the supplier or in the case of a recombinant cell in the presence of selective growth media such as G418 (Gibco/Invitrogen). The cells are disassociated from the culture dishes with an enzymatic solution (1×) Trypsin/EDTA (Gibco/Invitrogen) and analyzed for density and viability using haemocytometer (Neubauer). Disassociated cells are washed and resuspended in their culture media then plated into Scintiplates (Beckman Coulter Inc.) (approximately 100,000 cells/well) and incubated at 37° C./5% CO2. for 20-24 hours. After an extensive wash with Low sodium HEPES-buffered saline solution (LNHBSS) (150 mM Choline Chloride, […] (Sigma), 1 mM Calcium Chloride, 5 mM Potassium Chloride, 1 mM Magnesium Chloride, 10 mM Glucose) agents diluted with LNHBSS are added to each well. (Varying concentrations of test agent may be used). The activation/radiolabel mixture contains aconitine (Sigma), and ^14C-guanidine hydrochloride (ARC).
After loading the cells with test agent and activation/radiolabel mixture, the Scintiplates are incubated at ambient temperature. Following the incubation, the Scintplates are extensively washed with LNHBSS supplemented with guanidine (Sigma). The Scintiplates are dried and then counted using a Wallac MicroBeta TriLux (Perkin-Elmer Life Sciences). The ability of the test agent to block sodium channel activity is determined by comparing the amount of ^14C-guanidine present inside the cells expressing the different sodium channels.
IC-50 value of a test agent for a specific sodium channel may be determined using the above general method. IC-50 may be determined using a 3,8,10,12 or 16 point curve in duplicate or triplicate with a starting concentration of 1, 5 or 10 μM diluted serially with a final concentration reaching the sub-nanomolar, nanomolar and low micromolar ranges. Typically the mid-point concentration of test agent is set at 1 μM, and sequential concentrations of half dilutions greater or smaller are applied (e.g. 0.5 μM; […] and 0.25 μM; 10 μM and 0.125 μM; 20 μM etc.). The IC-50 curve is calculated using the 4 Parameter Logistic Model or Sigmoidal Dose-Response Model formula (fit=(A+((B−A)/(1+((C/x)̂D)))).

L6 (rat myoblast cell) = assay type: cell-based
CHO-K1 = assay type: cell-based, Chinese Hamster
SK-N-BE2C = assay type: cell-based, human
[1] = test system: PC12 (rat pheochromocytoma); assay type: cell-based

For `CCCCc1nc2ccccn2c(=O)c1-c1ccc(O)cc1` [Example 11, 2-butyl-3-(4-hydroxyphenyl)-4H-pyrido[1,2-a]pyrimidin-4-one], the melting point was 160 °C (dec.) and the IC50 (sodium channel) was at least 10 µM.

Molecule `CCCCc1nc2ccccn2c(=O)c1-c1ccc(NC(=O)[C@@H]2CCCN2)cc1.Cl` [Example 18, (S)—N-[4-(2-butyl-4-oxo-4H-pyrido[1,2-a]pyrimidin-3-yl)phenyl]prolinamide hydrochloride] has a melting point of 179 to 187 °C and an IC50 (sodium channel) of at least 10 µM.

In the case of `NC1=N[C@H](O)[C@H]2[C@H]3O[C@]4(O)O[C@@H]([C@@H](O)[C@@]2(N1)[C@@H]4O)[C@]3(O)CO` [TTX, tetrodotoxin], the “block of [14C] Guanidine influx” value (L6 (rat myoblast cell)) is reported as “partially blocked by TTX (Nav1.5”, the “block of [14C] Guanidine influx” value (CHO-K1) is reported as “Guanidine influx was completely” and the “block of [14C] Guanidine influx” value (SK-N-BE2C) is reported as “TTX partially blocked influx”. The “block of [14C] Guanidine influx” value [1] was “Guanidine influx was completely”.
